These results are taken from ChEMBL document CHEMBL1221224, “Inhibition of Wnt signaling by Dishevelled PDZ peptides” (Nat Chem Biol, 2009).

Active and inactive are the calls of the source. The rule behind the calls is not given here. Where a SMILES comes first, the peptide text is derived from it.

The target of data set [1] is T1, Segment polarity protein dishevelled homolog DVL-2 (Homo sapiens, UniProt O14641).
T1 sequence (O14641 whole entry): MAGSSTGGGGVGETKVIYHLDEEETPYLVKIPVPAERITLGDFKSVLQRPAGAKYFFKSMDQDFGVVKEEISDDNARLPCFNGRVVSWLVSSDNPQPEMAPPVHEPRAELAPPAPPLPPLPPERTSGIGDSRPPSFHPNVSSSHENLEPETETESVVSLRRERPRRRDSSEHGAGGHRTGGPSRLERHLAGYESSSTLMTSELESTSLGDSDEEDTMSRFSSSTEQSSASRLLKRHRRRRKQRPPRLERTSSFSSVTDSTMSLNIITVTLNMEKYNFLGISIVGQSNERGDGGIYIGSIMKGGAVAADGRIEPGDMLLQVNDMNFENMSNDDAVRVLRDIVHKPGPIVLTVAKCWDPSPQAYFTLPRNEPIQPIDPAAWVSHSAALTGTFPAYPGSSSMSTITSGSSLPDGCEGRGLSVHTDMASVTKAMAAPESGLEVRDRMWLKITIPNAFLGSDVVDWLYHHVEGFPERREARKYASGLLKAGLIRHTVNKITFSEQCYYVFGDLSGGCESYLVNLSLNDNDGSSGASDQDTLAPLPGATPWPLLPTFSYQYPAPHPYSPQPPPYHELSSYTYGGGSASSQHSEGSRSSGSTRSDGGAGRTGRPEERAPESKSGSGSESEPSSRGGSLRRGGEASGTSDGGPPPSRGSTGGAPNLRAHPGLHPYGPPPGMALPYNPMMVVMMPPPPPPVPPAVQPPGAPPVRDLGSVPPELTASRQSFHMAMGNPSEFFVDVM
Nature of the data set: (§1) Binding affinity at Dvl2 PDZ domain after 15 mins by fluorescence polarization assay.

The nature of data set [2]: Drug uptake in human HEK293S cells after 1 hr by time-lapse microscopy. The format is ADME, cell-based.
Data set [3] concerns the target T2, Segment polarity protein dishevelled homolog DVL-2 (Homo sapiens) (UniProt O14641).
T2 sequence (whole entry): T1 sequence (O14641 whole entry)
As to the kind of experiment: Inhibition of Dvl2 overexpressed in human HEK293S assessed as inhibition of […]/TCF reporter signaling at 20 uM after 18 hrs by TOPglow reporter assay. In general terms: In a reporter assay the amount or activity of a reporter protein is the signal.

Another data set concerns HCT-15. Nature of the data set: Inhibition of Dvl mediated Wnt/TCF signaling in human HCT15 after 18 hrs by TOPglow reporter assay. The format is cell-based.
The target in data set [4] is T3, Segment polarity protein dishevelled homolog DVL-3 (Homo sapiens) (UniProt Q92997).
T3 sequence (whole entry): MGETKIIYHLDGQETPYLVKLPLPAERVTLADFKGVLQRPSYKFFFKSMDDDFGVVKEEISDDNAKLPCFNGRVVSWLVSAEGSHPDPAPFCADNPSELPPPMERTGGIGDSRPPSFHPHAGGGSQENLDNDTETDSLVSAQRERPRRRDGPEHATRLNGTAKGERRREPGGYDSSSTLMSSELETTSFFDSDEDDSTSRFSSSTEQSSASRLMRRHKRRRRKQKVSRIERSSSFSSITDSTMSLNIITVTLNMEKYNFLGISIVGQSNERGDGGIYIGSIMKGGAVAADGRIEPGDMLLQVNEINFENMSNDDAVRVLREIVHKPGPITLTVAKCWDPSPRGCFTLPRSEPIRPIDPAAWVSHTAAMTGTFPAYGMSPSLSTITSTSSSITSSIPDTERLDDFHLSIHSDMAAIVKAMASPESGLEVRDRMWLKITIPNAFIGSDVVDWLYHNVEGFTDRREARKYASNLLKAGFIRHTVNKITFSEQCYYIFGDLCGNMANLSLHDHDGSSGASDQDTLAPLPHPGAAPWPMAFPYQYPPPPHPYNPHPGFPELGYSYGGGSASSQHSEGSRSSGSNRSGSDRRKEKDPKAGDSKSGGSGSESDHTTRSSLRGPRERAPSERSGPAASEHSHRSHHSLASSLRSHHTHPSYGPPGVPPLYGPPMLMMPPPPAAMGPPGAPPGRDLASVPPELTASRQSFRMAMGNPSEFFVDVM
Nature of the data set: Inhibition of Dvl3 overexpressed in human HEK293S assessed as inhibition of […]/TCF reporter signaling at 20 uM after 18 hrs by TOPglow reporter assay.

In the next data set the test system is HEK293. As to the kind of experiment: Inhibition of Dvl mediated Wnt3a signaling in human HEK293 cells assessed as […] accumulation at 10 uM after 18 hrs by Western blot method. The format is cell-based. On the technique in general: Immunoblotting shows a protein as a band on a membrane.
Data set [5] can be described thus: Inhibition of Dvl mediated Wnt3a/TCF signaling in human HEK293S cells after 18 hrs by TOPglow reporter assay.
Data set [6] can be described thus: Cytotoxicity in human HEK293S cells assessed as cell viability at 33 uM after 18 hrs by differential interference contrast microscopy. The format is cell-based.
For data set [7], the target named is T3, Segment polarity protein dishevelled homolog DVL-3 (Homo sapiens). Nature of the data set: Binding affinity at Dvl3 in human HEK293S lysate after 15 mins by pulldown and Western blot assays.
Data set [8] addresses T4, Segment polarity protein dishevelled homolog DVL-1 (Homo sapiens) (UniProt O14640).
T4 sequence (whole entry): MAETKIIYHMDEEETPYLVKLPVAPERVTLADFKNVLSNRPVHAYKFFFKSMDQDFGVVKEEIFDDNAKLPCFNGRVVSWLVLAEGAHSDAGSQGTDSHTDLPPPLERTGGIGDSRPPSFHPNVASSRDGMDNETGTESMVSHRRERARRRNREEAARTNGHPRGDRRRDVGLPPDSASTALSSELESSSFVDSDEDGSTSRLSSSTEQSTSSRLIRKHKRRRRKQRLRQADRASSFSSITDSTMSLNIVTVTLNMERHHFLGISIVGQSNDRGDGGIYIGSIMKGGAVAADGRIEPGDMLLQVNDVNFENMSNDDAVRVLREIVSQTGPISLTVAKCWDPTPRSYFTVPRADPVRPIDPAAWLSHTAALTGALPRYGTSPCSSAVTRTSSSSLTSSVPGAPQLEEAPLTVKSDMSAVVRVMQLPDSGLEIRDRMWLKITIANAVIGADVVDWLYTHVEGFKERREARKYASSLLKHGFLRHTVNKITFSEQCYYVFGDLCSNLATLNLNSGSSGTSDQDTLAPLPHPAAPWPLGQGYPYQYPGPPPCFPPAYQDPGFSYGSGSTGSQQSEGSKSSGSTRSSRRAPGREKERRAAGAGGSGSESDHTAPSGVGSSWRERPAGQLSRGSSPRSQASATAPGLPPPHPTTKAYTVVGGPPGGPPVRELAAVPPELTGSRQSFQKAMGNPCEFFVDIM
As to the kind of experiment: Inhibition of Dvl1 overexpressed in human HEK293S assessed as inhibition of […]/TCF reporter signaling at 20 uM after 18 hrs by TOPglow reporter assay.

The target of data set [9] is T5, Catenin beta-1 (Homo sapiens) (UniProt P35222).
T5 sequence (whole entry): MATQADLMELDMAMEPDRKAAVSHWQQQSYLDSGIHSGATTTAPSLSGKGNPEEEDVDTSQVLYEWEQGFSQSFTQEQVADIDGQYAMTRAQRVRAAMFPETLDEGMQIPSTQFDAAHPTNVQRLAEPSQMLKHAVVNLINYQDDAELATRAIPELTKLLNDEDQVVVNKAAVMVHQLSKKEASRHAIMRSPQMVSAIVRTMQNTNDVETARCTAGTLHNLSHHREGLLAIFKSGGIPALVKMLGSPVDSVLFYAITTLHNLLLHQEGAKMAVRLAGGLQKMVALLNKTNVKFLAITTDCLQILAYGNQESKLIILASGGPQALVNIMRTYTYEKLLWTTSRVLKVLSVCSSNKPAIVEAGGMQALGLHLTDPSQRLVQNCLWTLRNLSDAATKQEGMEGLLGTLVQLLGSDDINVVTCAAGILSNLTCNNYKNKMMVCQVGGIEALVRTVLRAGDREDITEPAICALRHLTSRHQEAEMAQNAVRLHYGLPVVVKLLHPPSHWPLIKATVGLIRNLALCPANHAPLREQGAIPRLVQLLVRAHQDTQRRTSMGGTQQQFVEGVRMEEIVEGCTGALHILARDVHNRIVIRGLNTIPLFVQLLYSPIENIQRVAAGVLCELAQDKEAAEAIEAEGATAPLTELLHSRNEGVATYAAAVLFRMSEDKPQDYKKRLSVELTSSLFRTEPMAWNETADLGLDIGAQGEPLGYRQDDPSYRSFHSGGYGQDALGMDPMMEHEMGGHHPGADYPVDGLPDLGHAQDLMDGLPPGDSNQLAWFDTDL
As to the kind of experiment: Inhibition of […] mediated […]/TCF reporter signaling in human HEK293S at 20 uM after 18 hrs by TOPglow reporter assay. The format is functional.

The nature of data set [10]: Cytotoxicity in human HEK293S cells assessed as cell viability at 300 uM after 18 hrs by differential interference contrast microscopy. The format is cell-based.
Data set [11] in a line: Cytotoxicity in human HEK293S cells assessed as cell viability at 100 uM after 18 hrs by differential interference contrast microscopy. In kind it is cell-based.
For data set [12], the target named is T2, Segment polarity protein dishevelled homolog DVL-2 (Homo sapiens). The data set is described as §1.

The Ki is a dissociation constant, usually derived from enzyme kinetics or from competition with a known ligand. Read a low Ki as a stronger hold on the target. In the case of `CC[C@H](C)[C@H](NC(=O)[C@H](Cc1c[nH]c2ccccc12)NC(=O)CNC(=O)[C@H](Cc1ccc(O)cc1)NC(=O)[C@H](CC(=O)O)NC(=O)[C@H](CCCCN)NC(=O)[C@@H](N)Cc1c[nH]c2ccccc12)C(=O)N[C@@H](CC(=O)O)C(=O)O` (H-WKDYGWID-OH), affinity in [1] was put at a Ki of 1.2 µM. That is a single-digit micromolar value.
`NCCCC[C@H](NC(=O)[C@@H](N)Cc1c[nH]c2ccccc12)C(=O)N[C@@H](Cc1c[nH]c2ccccc12)C(=O)N[C@@H](Cc1ccc(O)cc1)C(=O)NCC(=O)N[C@@H](Cc1c[nH]c2ccccc12)C(=O)N[C@@H](Cc1ccccc1)C(=O)O` (H-WKWYGWF-OH) displayed a Ki in [1] of 0.7 µM.
Broadly, the IC50 is the concentration needed to halve the response being measured. Low values mean inhibition by little substance, high ones a need for much substance. Consider `CC[C@H](C)[C@H](NC(=O)[C@H](CCCCN)NC(=O)[C@@H](NC(=O)[C@H](CCC(N)=O)NC(=O)[C@H](CCCNC(=N)N)NC(C)=O)[C@@H](C)CC)C(=O)N[C@@H](Cc1c[nH]c2ccccc12)C(=O)N[C@@H](Cc1ccccc1)C(=O)N[C@@H](CCC(N)=O)C(=O)N[C@@H](CC(N)=O)C(=O)N[C@@H](CCCNC(=N)N)C(=O)N[C@@H](CCCNC(=N)N)C(=O)N[C@@H](CCSC)C(=O)N[C@@H](CCCCN)C(=O)N[C@@H](Cc1c[nH]c2ccccc12)C(=O)N[C@@H](CCCCN)C(=O)N[C@@H](CCCCN)C(=O)NCC(=O)NCC(=O)NCC(=O)N[C@@H](CCC(=O)O)C(=O)N[C@H](C(=O)N[C@H](C(=O)N[C@@H](CC(C)C)C(=O)N[C@@H](Cc1c[nH]c2ccccc12)C(=O)N[C@@H](CO)C(=O)N[C@@H](CC(=O)O)C(=O)N[C@H](C(=O)N1CCC[C@H]1C(N)=O)[C@@H](C)CC)C(C)C)[C@@H](C)CC`, for which, in [2], the Drug uptake result is reported as “Active”. The inhibition entry (in data set [3]; in data set [4]; with HEK293; in data set [8]) was “Active” in each case. Also, the inhibition entry (in the data set on HCT-15; in data set [9]) was “inactive” each time. Also, the IC50 in data set [5] came out at 11 µM. Further, the Activity entry in data set [6] is “Non-toxic”. In data set [7], the result was Active.
`CC[C@H](C)[C@H](NC(=O)[C@H](CC(=O)O)NC(=O)[C@H](CO)NC(=O)[C@H](Cc1c[nH]c2ccccc12)NC(=O)[C@H](CC(C)C)NC(=O)[C@@H](NC(=O)[C@@H](NC(=O)[C@H](CCC(=O)O)NC(=O)CN)[C@@H](C)CC)C(C)C)C(=O)O` (H-GEIVLWSDI-OH): affinity in data set [1] was put at a Ki of 4.6 µM.
In [5], `CCCCC(O)c1[nH]c2cc(C)c(C(=O)O)cc2c1CCc1ccccc1` (configuration not stated) yielded an IC50 of over 100 µM. For the same compound, the Activity entry in [10] and in data set [11] was “Toxic” each time.
Consider `CC[C@H](C)[C@H](NC(=O)[C@H](Cc1c[nH]c2ccccc12)NC(=O)[C@@H](NC(=O)[C@H](CCC(=O)O)NC(=O)[C@H](CC(N)=O)NC(=O)CNC(=O)[C@@H](N)CO)C(C)C)C(=O)N[C@@H](CC(=O)O)C(=O)NCC(=O)N1CCC[C@H]1C(=O)O` (H-SGNEVWIDGP-OH), for which the outcome in data set [12] was Active.
